Measurements taken from PubChem BioAssay AID248 (DTP/NCI, 2004).
Where “and” joins values, the source holds several entries; their conditions need not be identical. Equal entries are not always repeated. Inconclusive results and toxic doses are left out. Rule as the data show it: active = T/C of 150% or more; inactive = T/C below 125%.

Tested on: L1210 leukemia ip in BDF1 mice, survival T/C
Test: NCI In Vivo Anticancer Drug Screen. Data for tumor model L1210 Leukemia (intraperitoneal) in B6D2F1 (BDF1) mice
Details: endpoint: mean survival time, higher = longer survival
Procedure, shortened: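 Mice bearing the transplanted tumor received compound or vehicle. Survival of the treated group was divided by that of the vehicle-treated control group to give the ratio.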

[1] = dose: 12.5 mg/kg/injection, schedule: Q01DX009 (ip), vehicle: saline with Tween-80
[2] = dose: 25.0 mg/kg/injection, schedule: Q01DX009 (ip), vehicle: saline with Tween-80
[3] = dose: 25.0 mg/kg/injection, schedule: Q04DX003 (ip), vehicle: saline with Tween-80
[4] = dose: 50.0 mg/kg/injection, schedule: Q01DX009 (ip), vehicle: saline with Tween-80
[5] = dose: 50.0 mg/kg/injection, schedule: Q04DX003 (ip), vehicle: saline with Tween-80
[6] = dose: 100.0 mg/kg/injection, schedule: Q01DX009 (ip), vehicle: saline with Tween-80
[7] = dose: 100.0 mg/kg/injection, schedule: Q04DX003 (ip), vehicle: saline with Tween-80
[8] = dose: 200.0 mg/kg/injection, schedule: Q01DX009 (ip), vehicle: saline with Tween-80
[9] = dose: 200.0 mg/kg/injection, schedule: Q04DX003 (ip), vehicle: saline with Tween-80
[10] = dose: 400.0 mg/kg/injection, schedule: Q04DX003 (ip), vehicle: saline with Tween-80
[11] = dose: 100.0 mg/kg/injection, schedule: Q04DX002 (ip), vehicle: Klucel (hydroxypropylcellulose) (HPC)
[12] = dose: 200.0 mg/kg/injection, schedule: Q04DX002 (ip), vehicle: Klucel (hydroxypropylcellulose) (HPC)
[13] = dose: 50.0 mg/kg/injection, schedule: Q04DX002 (ip), vehicle: saline
[14] = dose: 100.0 mg/kg/injection, schedule: Q04DX002 (ip), vehicle: saline
[15] = dose: 200.0 mg/kg/injection, schedule: Q04DX002 (ip), vehicle: saline
[16] = dose: 400.0 mg/kg/injection, schedule: Q04DX002 (ip), vehicle: saline
[17] = dose: 100.0 mg/kg/injection, schedule: Q04DX002 (ip), vehicle: saline with Tween-80
[18] = dose: 100.0 mg/kg/injection, schedule: Q04DX003 (ip), vehicle: saline
[19] = dose: 200.0 mg/kg/injection, schedule: Q04DX003 (ip), vehicle: saline
[20] = dose: 400.0 mg/kg/injection, schedule: Q04DX003 (ip), vehicle: saline
[21] = dose: 100.0 mg/kg/injection, schedule: Q01DX001 (ip), vehicle: carboxymethylcellulose (CMC)
[22] = dose: 400.0 mg/kg/injection, schedule: Q01DX001 (ip), vehicle: carboxymethylcellulose (CMC)

Measured: T/C

CC(=O)OCC1OC(OC2C(COC(C)=O)OC(Sc3ccccc3)C(OC(C)=O)C2OC(C)=O)C(OC(C)=O)C(OC(C)=O)C1OC(C)=O (centres undefined)
inactive: dose: 3.13 mg/kg/injection, schedule: Q01DX009 (ip), vehicle: saline with Tween-80 89 % of control | [1] 89 % of control | [2] 90 % of control | [3] 95 % of control | [4] 90 % of control | [5] 95 % of control | [6] 88 % of control | [7] 92 % of control | [8] 94 % of control | [9] 91 % of control | [10] 87 % of control

CC(O)CN1CCCCCC1 (centres undefined)
inactive: [1] 103 % of control | [2] 94 % of control | [3] 107 % of control | [4] 93 % of control | [5] 107 % of control | [7] 95 % of control

CCCCCCc1cc[n+](C(=O)c2ccc([N+](=O)[O-])cc2)cc1
inactive: [7] 102 % of control | [9] 104 % of control | [10] 94 % of control

C/C(=C\CC1(C)C(=O)CCC2(C)C1CCCC21OCCO1)Sc1ccc(Cl)cc1 (centres undefined)
inactive: [11] 89 % of control | [12] 95 % of control | dose: 400.0 mg/kg/injection, schedule: Q04DX002 (ip), vehicle: Klucel (hydroxypropylcellulose) (HPC) 110 % of control

ON=C(c1ccccn1)c1ccccn1
inactive: dose: 100.0 mg/kg/injection, schedule: Q01DX009 (ip), vehicle: gum acacia 93 % of control | dose: 100.0 mg/kg/injection, schedule: Q04DX003 (ip), vehicle: Klucel (hydroxypropylcellulose) (HPC) 97 % of control | dose: 200.0 mg/kg/injection, schedule: Q01DX009 (ip), vehicle: gum acacia 88 % of control | dose: 200.0 mg/kg/injection, schedule: Q04DX003 (ip), vehicle: Klucel (hydroxypropylcellulose) (HPC) 93 % of control | dose: 400.0 mg/kg/injection, schedule: Q01DX009 (ip), vehicle: gum acacia 98 % of control | dose: 400.0 mg/kg/injection, schedule: Q04DX003 (ip), vehicle: Klucel (hydroxypropylcellulose) (HPC) 95 % of control

NC(=O)C1C2C=CC(O2)C1C(=O)O (centres undefined)
inactive: dose: 12.5 mg/kg/injection, schedule: Q04DX002 (ip), vehicle: saline 111 % of control | dose: 25.0 mg/kg/injection, schedule: Q04DX002 (ip), vehicle: saline 97 % of control | [13] 103 % of control

Cc1ccc(S(=O)(=O)OC2CS(=O)(=O)C2)cc1
inactive: [6] 100 % of control | [7] 105 % of control | [8] 95 % of control | [9] 100 % of control | dose: 400.0 mg/kg/injection, schedule: Q01DX009 (ip), vehicle: saline with Tween-80 105 % of control | [10] 97 % of control

COC(=O)c1cc(NC(=O)Nc2cc([N+](=O)[O-])ccc2C)cc(C(=O)OC)c1
inactive: [14] 120 % of control | [15] 103 % of control | [16] 116 % of control

NC(=O)c1cccc([N+](=O)[O-])c1
inactive: [7] 101 % of control | [9] 95 % of control | [10] 93 % of control

COc1cc(NC(=O)Nc2ccccc2Cl)c(OC)cc1Cl
inactive: [17] 93 % of control

O=C1c2ccccc2C(=O)N1CCCCCN1C(=O)c2ccccc2C1=O
inactive: dose: 100.0 mg/kg/injection, schedule: Q01DX001 (ip), vehicle: saline with Tween-80 102 % of control | [17] 104 % of control | dose: 200.0 mg/kg/injection, schedule: Q01DX001 (ip), vehicle: saline with Tween-80 96 % of control | dose: 200.0 mg/kg/injection, schedule: Q04DX002 (ip), vehicle: saline with Tween-80 96 % of control | dose: 400.0 mg/kg/injection, schedule: Q01DX001 (ip), vehicle: saline with Tween-80 98 % of control | dose: 400.0 mg/kg/injection, schedule: Q04DX002 (ip), vehicle: saline with Tween-80 101 % of control

COc1ccc(C2=CC=C(c3ccccc3)C2)cc1N
inactive: dose: 100.0 mg/kg/injection, schedule: Q01DX001 (ip), vehicle: Klucel (hydroxypropylcellulose) (HPC) 90 % of control | dose: 200.0 mg/kg/injection, schedule: Q01DX001 (ip), vehicle: Klucel (hydroxypropylcellulose) (HPC) 95 % of control | dose: 400.0 mg/kg/injection, schedule: Q01DX001 (ip), vehicle: Klucel (hydroxypropylcellulose) (HPC) 90 % of control

Cc1ccc(NCC(=O)NN)cc1
inactive: [11] 104 % of control | [12] 107 % of control

O=[N+]([O-])c1ccc(/C=N/N2CCOCC2)s1
inactive: [18] 102 % of control | [19] 97 % of control | [20] 102 % of control

CCOC(=O)C(CCc1c[nH]c(=O)[nH]c1=O)(NC(C)=O)C(=O)OCC
inactive: [13] 102 % of control | [14] 122 % of control | [15] 102 % of control | [16] 104 % of control

Nc1nnnc2c1ncn2C1CCCC1
inactive: dose: 75.0 mg/kg/injection, schedule: Q01DX001 (ip), vehicle: other 97 % of control

O=C(O)c1ccc(C(=O)O)nn1
inactive: [14] 96 % of control | [15] 90 % of control

NC12CCCCC1(O)CCCC2 (centres undefined)
inactive: dose: 75.0 mg/kg/injection, schedule: Q01DX001 (ip), vehicle: saline 101 % of control | dose: 150.0 mg/kg/injection, schedule: Q01DX001 (ip), vehicle: saline 101 % of control | dose: 300.0 mg/kg/injection, schedule: Q01DX001 (ip), vehicle: saline 95 % of control

CCOC(=O)N(CC)c1ccccc1
inactive: dose: 100.0 mg/kg/injection, schedule: Q01DX009 (ip), vehicle: Klucel (hydroxypropylcellulose) (HPC) 103 % of control | [18] 88 % of control | dose: 200.0 mg/kg/injection, schedule: Q01DX009 (ip), vehicle: Klucel (hydroxypropylcellulose) (HPC) 107 % of control | [19] 101 % of control | dose: 400.0 mg/kg/injection, schedule: Q01DX009 (ip), vehicle: Klucel (hydroxypropylcellulose) (HPC) 102 % of control | [20] 98 % of control

O=C1CCCC(=O)c2c(O)ccc(O)c21
inactive: dose: 100.0 mg/kg/injection, schedule: Q01DX001 (ip), vehicle: saline 96 % of control | dose: 200.0 mg/kg/injection, schedule: Q01DX001 (ip), vehicle: saline 98 % of control | dose: 400.0 mg/kg/injection, schedule: Q01DX001 (ip), vehicle: saline 96 % of control

CCCNC(=O)Sc1ccc(Cl)cc1
inactive: dose: 12.5 mg/kg/injection, schedule: Q01DX001 (ip), vehicle: Klucel (hydroxypropylcellulose) (HPC) 100 % of control | dose: 12.5 mg/kg/injection, schedule: Q01DX009 (ip), vehicle: Klucel (hydroxypropylcellulose) (HPC) 95 % of control and 110 % of control | dose: 25.0 mg/kg/injection, schedule: Q01DX001 (ip), vehicle: Klucel (hydroxypropylcellulose) (HPC) 95 % of control | dose: 25.0 mg/kg/injection, schedule: Q01DX009 (ip), vehicle: Klucel (hydroxypropylcellulose) (HPC) 97 % of control and 106 % of control | dose: 50.0 mg/kg/injection, schedule: Q01DX001 (ip), vehicle: Klucel (hydroxypropylcellulose) (HPC) 94 % of control | dose: 50.0 mg/kg/injection, schedule: Q01DX009 (ip), vehicle: Klucel (hydroxypropylcellulose) (HPC) 98 % of control | [11] 96 % of control | [12] 93 % of control and 86 % of control

CCCOc1ccc([N+](=O)[O-])cc1N
inactive: [21] 96 % of control | dose: 200.0 mg/kg/injection, schedule: Q01DX001 (ip), vehicle: carboxymethylcellulose (CMC) 100 % of control | [22] 94 % of control

COc1cc2c3cc1Oc1c(OC)c(OC)cc4c1C(Cc1ccc(OC(C)=O)c(c1)Oc1ccc(cc1)CC3N(C)CC2)N(C)CC4 (centres undefined)
inactive: [7] 108 % of control | [9] 101 % of control | [10] 103 % of control

CSc1nnc(-c2ccc(OCCOc3ccc(C(C)(C)CC(C)(C)C)cc3)cc2)s1
inactive: [7] 89 % of control | [9] 94 % of control | [10] 91 % of control

O=C1OC(c2cccc(Cl)c2)=N/C1=C\C=C/c1ccccc1
inactive: [21] 95 % of control | dose: 100.0 mg/kg/injection, schedule: Q01DX009 (ip), vehicle: carboxymethylcellulose (CMC) 89 % of control and 92 % of control | dose: 200.0 mg/kg/injection, schedule: Q01DX009 (ip), vehicle: carboxymethylcellulose (CMC) 87 % of control and 92 % of control | [22] 93 % of control
